Laboratory results as given in US20230131025A1, “QUINOLYL PHOSPHINE OXIDE COMPOUND, AND COMPOSITION AND APPLICATION THEREOF” (Betta Pharmaceuticals Co., Ltd., priority 2020, published 2023).

What was measured:
[1] = target: IGF1R (Homo sapiens, UniProt P08069); assay: Kinase inhibition assay (mobility shift); assay type: biochemical
Description: (§1) Experiment 1 Kinase Inhibition Assay Mobility shift assays were performed to determine inhibitory activity of compounds against EGFR^Δ19del/T790M/C797S, EGFR WT and IGF1R kinases. The enzymatic reaction scheme is as follows:
(§2) 1. Preparing 1*Kinase Buffer as follows:
(§3) 2. Preparing compound concentration gradient: the initial concentration of the compound tested in the assay was 3,000 nM or 100 nM, which is then diluted to be 100-fold final concentration in 100% DMSO in a 384-source plate. Compounds in 10 concentrations were diluted in a 3-fold gradient with Precision. 250 nL of compound in 100-fold final concentration was transferred to OptiPlate-384F plate by using a dispenser named Echo 550.
(§4) 3. Preparing kinase solution at 2.5-fold the final concentration with 1×kinase buffer.
(§5) 4. Adding 10 μL of kinase solution at 2.5-fold the final concentration to compound wells and positive control wells respectively; and adding 10 μL of 1×kinase buffer to negative control wells.
(§6) 5. Centrifuging the wells at 1,000 rpm for 30 seconds, mixing the reaction plate well by shaking and incubating it at room temperature for 10 minutes.
(§7) 6. Preparing a mixed solution of ATP and kinase substrate at 5-fold/3-fold the final concentration with 1×Kinase buffer, respectively.
(§8) 7. Initiating the reaction by adding 15 μL of the mixed solution of ATP and kinase substrate at 5-fold/3-fold the final concentration.
(§9) 8. Centrifuging the 384-well plate at 1,000 rpm for 30 seconds, mixing the reaction plate well by shaking and incubating it at room temperature for a corresponding time.
(§10) 9. Adding 30 μL of assay stop solution to stop the kinase reaction, and centrifuging the plate at 1,000 rpm for 30 seconds and mixing it well by shaking.
(§11) 10. Reading the conversion rate with Caliper EZ Reader.
(§12) [formula] • wherein, “Conversion % sample” is the conversion rate reading of the sample;
(§13) “Conversion %_min” is the mean value of the negative control wells, representing the conversion rate readings of the well without enzymatic activity; “Conversion %_max” is the mean value of the positive control wells, representing the conversion rate readings of the wells without compound inhibition. • Dose-response curve is plotted with the logarithmic concentration on the X-axis and percent inhibition on the Y-axis. The fitting of the dose-response curve is made with the module “log(inhibitor) vs. response—Variable slope” of the analysis software GraphPad Prism 5, so that the IC50 value of each compound on enzymatic activity is obtained. • The calculation formula is: Y=Bottom+(Top−Bottom)/(1+10^((Log IC50−X)*HillSlope)).

[2] = target: EGFR WT (Homo sapiens, UniProt P00533); assay: Kinase inhibition assay (mobility shift); assay type: biochemical
Description: as §1, §2, §3, §4, §5, §6, §7, §8, §9, §10, §11, §12, §13

[3] = target: EGFR Δ19del/T790M/C797S (Homo sapiens, UniProt P00533, T790M/C797S, form not given); assay: Kinase inhibition assay (mobility shift); assay type: biochemical
Description: as §1, §2, §3, §4, §5, §6, §7, §8, §9, §10, §11, §12, §13

[4] = target: Ba/F3-Δ19del/T790M/C797S (Homo sapiens, UniProt P00533, T790M/C797S, cells depend on it, form not given); assay: Cell proliferation experiment (CellTiter Glo, 72 hours); assay type: cell-based; conditions: read-out: Ba/F3/EGFR Δ19del/T790M/C797S IC50
Description: (§14) Experiment 2 Cell Proliferation Experiment
(§15) Suspension cells: Ba/F3 cells with stable overexpression of Δ19del/T790M/C797S mutant gene, named Ba/F3-Δ19del/T790M/C797S; Ba/F3 cells with overexpression of EGFR WT, named Ba/F3 EGFR WT.
(§16) RPMI 1640 with 10% FBS and 1% Penicillin-Streptomycin, or DMEM with 10% FBS and 1% Penicillin-Streptomycin.
(§17) a) Diluting compounds being tested (20 mM stock solutions), as an initial concentration, to 10 mM with 100% DMSO, followed by diluting compounds serially in a 3-fold gradient such that each compound is diluted into 12 concentrations (Cat #P-05525, Labcyte).
(§18) b) Diluting the above compound solutions for 100-fold with culture medium to prepare 10-fold working solution.
(§19) b) Seeding cells into 96-well cell culture plate at a density of 2000 or 3000 cells/well, with 135 μL/well.
(§20) a) Adding the compound prepared in step 2 to the cell plate at 15 μL per well, resulting in a final maximum concentration of 10000 nM or 1111 nM. The compounds is diluted serially in a 3-fold gradient such that each compound is diluted into 9 concentrations, wherein the final concentration of DMSO is 0.1%. Blank control wells are added with medium (0.1% DMSO).
(§21) b) Re-incubating the cells in an incubator for 72 hours. 5. Detection
(§22) a) Adding 50 μL of CTG reagent (CellTiter Glo kit, promega, Cat #G7573) to the 96-well cell culture plate.
(§23) b) Shaking the plate for 2 minutes and reacting at room temperature for 10 minutes.
(§24) c) Reading the luminescence signal value (Lum) using PerkinElmer reader.
(§25) The cell survival inhibition rate of each well was calculated. The data was analyzed by GraphPad Prism 6.0 software. The dose-response curve was obtained by fitting the data with a nonlinear regression equation. The IC50 of each compound was calculated as follows:
(§26) Cell survival inhibition rate (%)=(1−(Lumcompound tested−Lummedium control)/(Lumcell control−Lummedium control))×100%
(§27) Y=Min+(Max−Min)/(1+10^((Log IC50−X)*Slope));
(§28) X: logarithm of compound concentration. Y: cell survival inhibition rate.

[5] = target: Ba/F3 EGFR WT (Homo sapiens, UniProt P00533); assay: as above; assay type: cell-based; conditions: read-out: BaF3 EGFR WT IC50
Description: as §14, §15, §16, §17, §18, §19, §20, §21, §22, §23, §24, §25, §26, §27, §28

[6] = system: human epidermal cancer cells A431 carrying EGFR WT; assay: as above; assay type: cell-based; conditions: Homo sapiens, A-431
Description: as §14
Adherent cells: human epidermal cancer cells A431 carrying EGFR WT.
as §16, §17, §18, §19, §20, §21, §22, §23, §24, §25, §26, §27, §28

Chain of Ba/F3-Δ19del/T790M/C797S (P00533 with tags, fused parts or gaps DEL746-750/T790M/C797S, form open): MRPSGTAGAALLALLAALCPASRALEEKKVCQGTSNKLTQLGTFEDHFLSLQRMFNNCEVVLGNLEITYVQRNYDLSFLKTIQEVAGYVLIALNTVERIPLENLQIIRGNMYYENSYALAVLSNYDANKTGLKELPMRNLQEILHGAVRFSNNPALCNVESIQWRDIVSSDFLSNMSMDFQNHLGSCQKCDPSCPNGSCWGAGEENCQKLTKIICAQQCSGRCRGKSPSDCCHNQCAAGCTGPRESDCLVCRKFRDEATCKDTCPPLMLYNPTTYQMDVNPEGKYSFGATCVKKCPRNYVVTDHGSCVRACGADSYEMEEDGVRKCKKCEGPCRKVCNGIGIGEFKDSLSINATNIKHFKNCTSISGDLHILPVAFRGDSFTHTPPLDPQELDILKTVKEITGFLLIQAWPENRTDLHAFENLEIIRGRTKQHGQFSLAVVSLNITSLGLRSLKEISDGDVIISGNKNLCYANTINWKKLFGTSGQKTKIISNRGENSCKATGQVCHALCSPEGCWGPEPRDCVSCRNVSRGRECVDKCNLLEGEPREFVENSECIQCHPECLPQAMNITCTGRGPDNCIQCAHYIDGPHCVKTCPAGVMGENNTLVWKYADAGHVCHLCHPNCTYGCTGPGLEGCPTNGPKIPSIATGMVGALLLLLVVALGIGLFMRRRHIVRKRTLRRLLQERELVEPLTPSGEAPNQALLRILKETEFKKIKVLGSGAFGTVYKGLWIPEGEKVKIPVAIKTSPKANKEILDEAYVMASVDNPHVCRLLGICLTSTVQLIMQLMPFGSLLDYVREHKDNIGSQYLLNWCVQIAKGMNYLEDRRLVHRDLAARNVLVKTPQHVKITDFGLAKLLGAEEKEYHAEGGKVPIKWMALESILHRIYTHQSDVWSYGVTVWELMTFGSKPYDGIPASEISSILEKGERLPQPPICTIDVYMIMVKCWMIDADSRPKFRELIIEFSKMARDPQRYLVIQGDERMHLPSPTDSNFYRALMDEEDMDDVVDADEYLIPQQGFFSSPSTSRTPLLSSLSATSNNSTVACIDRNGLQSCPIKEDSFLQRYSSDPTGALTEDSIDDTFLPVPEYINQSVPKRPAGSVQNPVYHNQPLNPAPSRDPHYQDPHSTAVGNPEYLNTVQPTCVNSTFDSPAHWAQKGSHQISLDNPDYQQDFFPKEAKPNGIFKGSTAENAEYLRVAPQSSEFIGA
Chain of EGFR Δ19del/T790M/C797S (P00533 with tags, fused parts or gaps DEL746-750/T790M/C797S, form open): as above
Chain of Ba/F3 EGFR WT (P00533 whole entry, change not shown): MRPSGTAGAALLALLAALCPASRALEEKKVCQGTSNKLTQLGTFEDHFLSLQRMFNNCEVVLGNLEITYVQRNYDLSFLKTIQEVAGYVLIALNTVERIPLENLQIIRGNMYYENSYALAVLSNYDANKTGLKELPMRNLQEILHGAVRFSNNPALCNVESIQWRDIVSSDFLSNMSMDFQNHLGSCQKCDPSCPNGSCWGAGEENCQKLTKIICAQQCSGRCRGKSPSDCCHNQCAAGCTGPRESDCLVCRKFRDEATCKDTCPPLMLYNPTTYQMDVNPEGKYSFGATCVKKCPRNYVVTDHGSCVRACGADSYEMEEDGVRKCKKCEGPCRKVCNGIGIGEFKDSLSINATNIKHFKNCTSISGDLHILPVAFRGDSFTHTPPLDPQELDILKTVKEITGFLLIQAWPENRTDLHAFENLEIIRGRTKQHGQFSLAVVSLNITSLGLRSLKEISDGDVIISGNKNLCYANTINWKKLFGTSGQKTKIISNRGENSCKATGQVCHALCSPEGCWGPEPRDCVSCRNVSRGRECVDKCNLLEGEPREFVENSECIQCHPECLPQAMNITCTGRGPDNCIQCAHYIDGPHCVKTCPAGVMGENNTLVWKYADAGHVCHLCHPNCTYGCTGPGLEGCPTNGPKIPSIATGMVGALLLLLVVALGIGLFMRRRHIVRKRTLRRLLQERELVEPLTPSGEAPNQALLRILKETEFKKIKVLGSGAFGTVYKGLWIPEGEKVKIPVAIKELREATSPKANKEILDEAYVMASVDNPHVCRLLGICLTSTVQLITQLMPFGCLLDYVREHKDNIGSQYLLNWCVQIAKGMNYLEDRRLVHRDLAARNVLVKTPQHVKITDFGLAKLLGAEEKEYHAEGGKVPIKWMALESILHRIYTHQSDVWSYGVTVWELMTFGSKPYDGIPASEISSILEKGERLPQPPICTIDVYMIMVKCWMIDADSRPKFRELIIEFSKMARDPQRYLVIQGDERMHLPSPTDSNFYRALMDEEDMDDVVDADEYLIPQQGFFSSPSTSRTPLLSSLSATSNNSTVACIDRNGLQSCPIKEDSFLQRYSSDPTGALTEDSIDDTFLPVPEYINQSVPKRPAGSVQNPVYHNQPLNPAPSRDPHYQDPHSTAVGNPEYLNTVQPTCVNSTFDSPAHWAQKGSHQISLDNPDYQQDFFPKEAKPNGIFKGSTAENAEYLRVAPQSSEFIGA
Chain of IGF1R (P08069 31-1367, species assumed): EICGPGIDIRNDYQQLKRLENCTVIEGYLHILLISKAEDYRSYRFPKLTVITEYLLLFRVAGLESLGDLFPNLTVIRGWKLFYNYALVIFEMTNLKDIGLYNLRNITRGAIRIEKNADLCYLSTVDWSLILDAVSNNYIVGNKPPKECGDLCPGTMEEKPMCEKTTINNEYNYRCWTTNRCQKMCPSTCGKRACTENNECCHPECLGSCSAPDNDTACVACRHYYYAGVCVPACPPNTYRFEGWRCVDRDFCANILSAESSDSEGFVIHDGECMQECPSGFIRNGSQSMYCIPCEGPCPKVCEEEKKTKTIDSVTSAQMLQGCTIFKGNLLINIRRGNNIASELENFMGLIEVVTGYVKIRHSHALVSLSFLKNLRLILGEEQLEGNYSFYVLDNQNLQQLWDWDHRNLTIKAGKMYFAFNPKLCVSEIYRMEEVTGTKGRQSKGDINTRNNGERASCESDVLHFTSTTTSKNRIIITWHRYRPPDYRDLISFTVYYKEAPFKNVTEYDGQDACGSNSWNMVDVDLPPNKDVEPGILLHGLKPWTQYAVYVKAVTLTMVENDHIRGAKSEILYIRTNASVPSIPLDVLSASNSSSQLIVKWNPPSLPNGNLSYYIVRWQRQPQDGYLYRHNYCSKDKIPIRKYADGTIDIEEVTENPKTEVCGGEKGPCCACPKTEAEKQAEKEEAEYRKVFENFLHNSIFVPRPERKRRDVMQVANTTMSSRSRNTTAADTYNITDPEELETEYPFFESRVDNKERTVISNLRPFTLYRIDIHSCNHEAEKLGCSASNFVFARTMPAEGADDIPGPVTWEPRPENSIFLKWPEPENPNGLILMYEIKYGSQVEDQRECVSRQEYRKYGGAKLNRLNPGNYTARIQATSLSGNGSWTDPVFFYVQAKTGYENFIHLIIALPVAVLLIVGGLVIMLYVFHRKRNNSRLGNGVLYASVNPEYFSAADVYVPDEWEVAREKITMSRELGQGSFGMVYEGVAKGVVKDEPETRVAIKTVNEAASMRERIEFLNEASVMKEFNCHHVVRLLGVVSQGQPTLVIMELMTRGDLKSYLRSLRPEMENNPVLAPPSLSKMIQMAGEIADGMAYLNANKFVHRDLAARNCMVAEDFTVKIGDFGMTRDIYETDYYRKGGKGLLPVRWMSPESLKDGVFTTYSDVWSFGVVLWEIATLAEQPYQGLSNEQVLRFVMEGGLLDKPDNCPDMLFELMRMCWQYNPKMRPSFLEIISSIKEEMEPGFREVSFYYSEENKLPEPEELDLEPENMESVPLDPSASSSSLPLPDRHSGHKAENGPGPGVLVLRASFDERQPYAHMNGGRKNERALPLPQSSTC

Row | SMILES | IC50 [1] [nM] | IC50 [2] [nM] | IC50 [3] [nM] | GI50 [4] [nM] | GI50 [5] [nM] | IC50 [6] [nM]
1 | COc1cc(N2CCN(C)CC2)c(C)cc1Nc1ncc(Br)c(Nc2ccc3nc(C4CC4)ccc3c2P(C)(C)=O)n1 [Compound J-010, (6-((5-Bromo-2-((2-methoxy-5-methyl-4-(4-methylpiperazin-1-yl)phenyl)amino)pyrimidin-4-yl)amino)-2-cyclopropylquinolin-5-yl)dimethylphosphine oxide] | 142 | 79 | 0.2 | 11.5 | 187 | 969
2 | CCc1cc(Nc2ncc(Br)c(Nc3ccc4nc(C5CC5)ccc4c3P(C)(C)=O)n2)c(OC)cc1N1CCN(C)CC1 [Compound J-011, (6-((5-Bromo-2-((5-ethyl-2-methoxy-4-(4-methylpiperazin-1-yl)phenyl)amino)pyrimidin-4-yl)amino)-2-cyclopropylquinolin-5-yl)dimethylphosphine oxide] | 146 | 45.8 | 0.7 | 4.7 | 190 | 1160
3 | COc1cc(N2CCN(C)CC2)c(C#N)cc1Nc1ncc(Br)c(Nc2ccc3nc(C4CC4)ccc3c2P(C)(C)=O)n1 [Compound J-012, 5-((5-Bromo-4-((2-cyclopropyl-5-(dimethylphosphineoxide)quinolin-6-yl)amino)pyrimidin-2-yl)amino)-4-methoxy-2-(4-methylpiperazin-1-yl)benzonitrile] | 279 | 43.9 | 0.2 | 3.4 | 130 | 830
4 | C#Cc1ccc2c(P(C)(C)=O)c(Nc3nc(Nc4cc(C)c(N5CCC(N6CCN(C)CC6)CC5)cc4OC)ncc3Br)ccc2n1 [Compound J-013, (6-((5-Bromo-2-((2-methoxy-5-methyl-4-(4-(4-methylpiperazin-1 yl)piperidin-1-yl)phenyl)amino)pyrimidin-4-yl)amino)-2-ethynylquinolin-5-yl)dimethylphosphine oxide] | 28.2 | 11.4 | 0.4 | 15.3 | 87 | 308
5 | CCc1cc(N2CCC(N3CCN(C)CC3)CC2)c(OC)cc1Nc1ncc(Br)c(Nc2ccc3nc(C4CC4)ccc3c2P(C)(C)=O)n1 [Compound J-031, (6-((5-Bromo-2-((2-ethyl-5-methoxy-4-(4-(4-methylpiperazin-1-yl)piperidin-1-yl)phenyl)amino)pyrimidin-4-yl)amino)-2-cyclopropylquinolin-5-yl)dimethylphosphine oxide] | 103 | 64 | 0.5 | – | – | –
6 | COc1cc(N2CCN(C3CCCC3)CC2)c(C)cc1Nc1ncc(Br)c(Nc2ccc3nc(C4CC4)ccc3c2P(C)(C)=O)n1 [Compound J-032, (6-((5-Bromo-2-((4-(4-cyclopentylpiperazin-1-yl)-2-methoxy-5-methylphenyl)amino)pyrimidin-4-yl)amino)-2-cyclopropylquinolin-5-yl)dimethylphosphine oxide] | 170 | 121 | 1 | – | – | –
7 | COc1cc(N2CCN(C3CC3)CC2)c(C)cc1Nc1ncc(Br)c(Nc2ccc3nc(C4CC4)ccc3c2P(C)(C)=O)n1 [Compound J-038, (6-((5-Bromo-2-((4-(4-cyclopropylpiperazin-1-yl)-2-methoxy-5-methylphenyl)amino)pyrimidin-4-yl)amino)-2-cyclopropylquinolin-5-yl)dimethylphosphine oxide] | 586 | 171 | 0.9 | – | – | –
8 | COc1cc(-c2ccc(N3CCN(C)CC3)cc2)c(C)cc1Nc1ncc(Br)c(Nc2ccc3nc(C4CC4)ccc3c2P(C)(C)=O)n1 [Compound J-040, (6-((5-Bromo-2-((5-methoxy-2-methyl-4′-(4-methylpiperazin-1-yl)-[1,1′-biphenyl]-4-yl)amino)pyrimidin-4-yl)amino)-2-cyclopropylquinolin-5-yl)dimethylphosphine oxide] | 1160 | 550 | 6 | – | – | –

Next, values leading:

Row | IC50 [1] [nM] | IC50 [2] [nM] | IC50 [3] [nM] | GI50 [4] [nM] | GI50 [5] [nM] | IC50 [6] [nM] | SMILES
9 | 63.6 | 51.7 | 0.5 | 26.5 | 396 | 1350 | COc1cc(Nc2ncc(Br)c(Nc3ccc4nc(C5CC5)ccc4c3P(C)(C)=O)n2)c(C)cc1N1CCOCC1 [Compound J-001, (6-((5-Bromo-2-((5-methoxy-2-methyl-4-morpholinylphenyl)amino)pyrimidin-4-yl)amino)-2-cyclopropylquinoline-5-yl)dimethylphosphine oxide]
10 | 189 | 172 | 0.5 | 25.7 | 646 | 3040 | CCc1cc(N2CCOCC2)c(OC)cc1Nc1ncc(Br)c(Nc2ccc3nc(C4CC4)ccc3c2P(C)(C)=O)n1 [Compound J-003, (6-((5-Bromo-2-((2-ethyl-5-methoxy-4-morpholinylphenyl)amino)pyrimidin-4-yl)amino)-2-cyclopropylquinoline-5-yl)dimethylphosphine oxide]
11 | 74.4 | 132 | 0.5 | 27 | 698 | 6140 | COc1cc(Nc2ncc(Br)c(Nc3ccc4nc(C5CC5)ccc4c3P(C)(C)=O)n2)c(C(C)C)cc1N1CCOCC1 [Compound J-005, (6-((5-Bromo-2-((2-isopropyl-5-methoxy-4-morpholinylphenyl)amino)pyrimidin-4-yl)amino)-2-cyclopropylquinoline-5-yl)dimethylphosphine oxide]
12 | 41 | 30.3 | 0.2 | 6 | 147 | 1030 | COc1cc(Nc2ncc(Br)c(Nc3ccc4nc(-c5cnn(C)c5)ccc4c3P(C)(C)=O)n2)c(C)cc1N1CCOCC1 [Compound J-007, (6-((5-Bromo-2-((5-methoxy-2-methyl-4-morpholinylphenyl)amino)pyrimidin-4-yl)amino)-2-(1-methyl-1H-pyrazol-4-yl)quinolin-5-yl)dimethylphosphine oxide]
13 | 14.8 | 14.4 | 0.3 | 16.3 | 168 | 384 | COc1cc(Nc2ncc(Br)c(Nc3ccc4nc(C5CC5)ccc4c3P(C)(C)=O)n2)c(C)cc1N1CCC(N(C)C)CC1 [Compound J-009, (6-((5-Bromo-2-((4-(4-(dimethylamino)piperidin-1-yl)-5-methoxy-2-methylphenyl)amino)pyrimidine-4-yl)amino)-2-cyclopropylquinolin-5-yl)dimethylphosphine oxide]
